The values below come from PMC9888480, “Carboranyl-1,8-naphthalimide intercalators induce lysosomal membrane permeabilization and ferroptosis in cancer cell lines” (Journal of Enzyme Inhibition and Medicinal Chemistry, 2023).

The test system of assay [1] is HepG2 cells. The assay is described as follows: Reduced glutathione (GSH) level measurement (Thiolite Green). Format: cell-based, human. The settings on record: HepG2, 24 h, total IC50 concentration. As for the experimental part: The HepG2 cells were seeded at a density of 2 × 10^5 cells/well onto 12-well plates and under the same environmental conditions as the above experiments. The cells were then treated with the tested compounds at the final concentration equal to the total IC50 values for 24 h. The cellular GSH level was measured by staining with the nonfluorescent Thiolite Green dye, which emits strong fluorescence after reaction with thiols ([…]) according to the manufacturer’s protocol (AAT Bioquest, Sunnyvale, CA, USA). After incubation with the compounds (34–5 µM, 35–4.5 µM, 36–4 µM, 37–4.5 µM) the cells were detached with trypsin (Corning®) and washed twice with 1 ml of DPBS (Capricorn). Subsequently, the cells were suspended in a staining solution (50 µM) and incubated at 37 °C in a 5% CO2 environment for 30 min. After staining, the fluorescence intensity was analysed using a FACSCalibur flow cytometer with excitation at 488 nm, and the data were analysed using the FlowJo software (Becton Dickinson).

Assay [2] concerns relaxed pBR 322 plasmid DNA. The assay is described as follows: DNA unwinding assay, relaxed plasmid as substrate. Type of assay: binding. As to conditions: 10 µM, in the presence of Topo I. The text has this:
Compounds that are able to intercalate into DNA or bind in the groove are involved in the local unwinding of the DNA, leading to a decrease in the twist number and an increase in the writhe number of the previously relaxed plasmid DNA used in the assay, resulting in a positively supercoiled DNA. If this DNA is then nicked by a topoisomerase, the enzyme will remove supercoils and relax the DNA, followed by religation. Upon removal of the compound and the enzyme by butanol extraction, the twist will increase, so the writhe will decrease, resulting in more negatively supercoiled DNA, which runs faster on agarose gel. […] This assay should be verified by performing a second reaction using a negatively supercoiled plasmid as a substrate to confirm that the compound is not simply acting as an inhibitor of the Topo I.
The DNA Unwinding Assay Kit (Cat no. DUKSR001) was purchased from Inspiralis (Norwich, UK). […] After extraction, the aqueous layer was mixed with an equal volume of STEB buffer (40% (w/v) sucrose, Tris–HCl (100 mM, pH 8), EDTA (1 mM), bromophenol blue (0.5 mg/ml)), extracted with chloroform/isoamyl alcohol (24:1), and analysed on 1% agarose gel in TAE buffer at 70 V for 2 h, followed by ethidium bromide staining. […]

Assay [3] relates to HepG2 cells. Description: Cell cycle analysis by flow cytometry (PI). Format: cell-based, human. As to conditions: HepG2, 24 h, total IC50 concentration; 5% in untreated cells. As for the experimental part:
The DNA content was determined using flow cytometry with PI (Sigma-Aldrich, Steinheim, Germany) staining. After incubation, the cells were trypsinized and washed twice with 1 ml of PBS (Capricorn). In the next step, the cells were fixed with an ice-cold 80% ethanol. After incubation for 1 h at 4 °C, the fixed cells were washed twice with PBS and suspended in the staining PI/RNAse A/PBS buffer (PI 50 µg/ml, RNAse A 100 µg/ml) for 30 min at 37 °C in the dark. PI (Sigma) fluorescence was measured using a FACSCalibur (Becton Dickinson), and data were analysed using the FlowJo software (Becton Dickinson).
(In flow cytometry, cells or beads pass a laser one at a time.)

The test system of assay [4] is HepG2 cells. Description: Mitochondrial membrane potential (MMP) measurement (JC-1). Format: cell-based, human. As to conditions: HepG2, 3-h treatment, 4.5 µM; 69.9% in control cells. As for the experimental part:
The HepG2 cells were seeded at the density of 2 × 10^5 cells/well onto 12-well plates and cultured with EMEM at 37 °C under 5% CO2 saturation until 70–80% confluency was reached. […] After incubation, the cells were detached with trypsin (Corning®) and washed twice with 1 ml of DPBS (Capricorn), and alterations in ΔΨm were analysed using the MMP-sensitive cationic dye 5,5′,6,6′-tetrachloro-1,1′,3,3′-tetraethylbenzimidazolylcarbocyanine iodide (JC-1; Thermo Fisher Scientific), which can selectively enter mitochondria and change colour from red to green as the membrane potential decreases. The cells were stained with 2.5 µM JC-1 for 30 min at 37 °C in the dark. The maximum emission wavelengths of JC-1 monomers and “J-aggregates” were ∼ 525 (FL-1 channel) and ∼ 590 (FL-2 channel) nm, respectively. To create a strong, single positive green fluorescence signal, 3 µM FCCP was used. The mean fluorescence intensity representing the intracellular MMP level was analysed after incubation with the dye, with excitation at 488 nm using a FACSCalibur flow cytometer (Becton Dickinson), and the data were analysed using the FlowJo software (Becton Dickinson).

For “4-[(6-[(1,2-Dicarba-closo-dodecaborane-1-yl)ethylamino]hexyl)amino]-3-nitro-N-[2-(N-pyrrolidinyl)ethyl]-1,8-naphthalimide [Compound 36]”, in the assay with HepG2 cells [1], the “GSH level, green fluorescence change compared to control” value is listed as “not statistically significant”.

For “4-[(6-[(1,7-Dicarba-closo-dodecaborane-1-yl)ethylamino]hexyl)amino]-3-nitro-N-[2-(N-pyrrolidinyl)ethyl]-1,8-naphthalimide [Compound 37]”, the “DNA intercalation (supercoiled DNA fraction from relaxed plasmid)” value in assay [2] is on record as “strongest DNA intercalator”. Moreover, in the assay on HepG2 cells [3], the “accumulation of cells in G2M phase” value turned out to be 15%.

With “4-[(6-[(1,7-Dicarba-closo-dodecaborane-1-yl)ethylamino]hexyl)amino]-N-[2-(dimethylamino)ethyl]-3-nitro-1,8-naphthalimide [Compound 35]”, in the assay with HepG2 cells [3], the “accumulation of cells in G2M phase” value was 15%. Moreover, the “MMP, JC-1 aggregates” value with HepG2 cells [4] was 90.8%. Moreover, the “GSH level, green fluorescence change compared to control” value with HepG2 cells [1] turned out to be 70%.
